According to patent US6544990B2, “Substituted quinolinecarboxamides as antiviral agents” (Pharmacia & Upjohn Company, priority 2001, dated 2003):

Legend:
VZV polymerase = VZV polymerase (Varicella-zoster virus, UniProt P09252); assay: Polymerase scintillation proximity assay (SPA), VZV; type: biochemical
HCMV polymerase = target: T1, HCMV polymerase (Human cytomegalovirus, UniProt P08546); assay: HCMV polymerase scintillation proximity assay (SPA); type: biochemical; settings: CMV polymerase
T1 construct: made in house; host or cells: recombinant baculovirus-infected SF-9 cells
T1 sequence (P08546 whole entry): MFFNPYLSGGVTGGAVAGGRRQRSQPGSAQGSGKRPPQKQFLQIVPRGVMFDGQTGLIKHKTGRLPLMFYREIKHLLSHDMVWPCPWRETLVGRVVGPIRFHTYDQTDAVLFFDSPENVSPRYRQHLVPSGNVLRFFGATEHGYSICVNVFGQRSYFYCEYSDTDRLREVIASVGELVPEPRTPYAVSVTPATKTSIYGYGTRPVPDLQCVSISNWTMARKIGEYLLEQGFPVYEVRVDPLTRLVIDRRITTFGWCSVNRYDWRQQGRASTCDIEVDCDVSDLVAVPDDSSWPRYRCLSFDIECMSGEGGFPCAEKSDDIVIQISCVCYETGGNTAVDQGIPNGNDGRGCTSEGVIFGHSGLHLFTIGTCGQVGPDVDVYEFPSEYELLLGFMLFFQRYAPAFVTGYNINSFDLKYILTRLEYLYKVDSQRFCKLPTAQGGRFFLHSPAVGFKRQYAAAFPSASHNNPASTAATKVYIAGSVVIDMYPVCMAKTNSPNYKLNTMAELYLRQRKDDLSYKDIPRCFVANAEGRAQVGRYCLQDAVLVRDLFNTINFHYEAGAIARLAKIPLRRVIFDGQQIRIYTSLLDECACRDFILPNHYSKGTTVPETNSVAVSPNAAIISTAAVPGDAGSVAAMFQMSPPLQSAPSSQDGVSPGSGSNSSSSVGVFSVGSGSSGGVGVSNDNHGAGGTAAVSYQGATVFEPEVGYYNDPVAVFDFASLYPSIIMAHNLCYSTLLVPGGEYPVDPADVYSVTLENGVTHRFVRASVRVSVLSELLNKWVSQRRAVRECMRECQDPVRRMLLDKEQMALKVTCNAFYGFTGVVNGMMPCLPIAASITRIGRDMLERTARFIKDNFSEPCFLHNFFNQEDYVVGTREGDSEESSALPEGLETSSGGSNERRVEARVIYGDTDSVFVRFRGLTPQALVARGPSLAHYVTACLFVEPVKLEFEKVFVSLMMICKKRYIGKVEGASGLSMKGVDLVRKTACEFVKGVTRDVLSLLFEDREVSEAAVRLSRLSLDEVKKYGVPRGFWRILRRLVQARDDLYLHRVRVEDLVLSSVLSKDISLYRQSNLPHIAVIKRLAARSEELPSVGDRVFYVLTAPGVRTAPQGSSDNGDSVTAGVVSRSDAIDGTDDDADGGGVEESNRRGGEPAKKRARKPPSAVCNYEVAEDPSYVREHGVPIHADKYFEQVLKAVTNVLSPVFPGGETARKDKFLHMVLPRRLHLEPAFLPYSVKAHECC
Procedure: The HCMV polymerase assay is performed using a scintillation proximity assay (SPA) as described in several references, such as N. D. Cook, et al., Pharmaceutical Manufacturing International, pages 49-53 (1992); K. Takeuchi, Laboratory Practice, September issue (1992); U.S. Pat. No. 4,568,649 (1986); which are incorporated by reference herein. Reactions are performed in 96-well plates. The assay is conducted in 100 μl volume with 5.4 mM HEPES (pH 7.5), 11.7 mM KCl, 4.5 mM MgCl2, 0.36 mg/ml BSA, and 90 nM 3H-dTTP. Assays are run with and without CHAPS, (3-[(3-Cholamidopropyl)-dimethylammonio]-1-propane-sulfonate) at a final concentration of 2 mM. HCMV polymerase is diluted in enzyme dilution buffer containing 50% glycerol, 250 mM NaCl, 10 mM HEPES (pH 7.5), 100 μg/ml BSA, and 0.01% sodium azide. The HCMV polymerase, which is expressed in recombinant baculovirus-infected SF-9 cells and purified according to literature procedures, is added at 10% (or 10 μl ) of the final reaction volume, i.e., 100 μl. Compounds are diluted in 50% DMSO and 10 μl are added to each well. Control wells contain an equivalent concentration of DMSO. Unless noted otherwise, reactions are initiated via the addition of 6 nM biotinylated poly(dA)-oligo(dT) template/primer to reaction mixtures containing the enzyme, substrate, and compounds of interest. Plates are incubated in a 25 C or 37 C H20 bath and terminated via the addition of 40 μl/reaction of 0.5 M EDTA (pH 8) per well. Reactions are terminated within the time-frame during which substrate incorporation is linear and varied depending upon the enzyme and conditions used, i.e., 30 min. for HCMV polymerase. Ten μl of streptavidin-SPA beads (20 mg/mil in PBS/10% glycerol) are added following termination of the reaction. Plates are incubated 10 min. at 37 C, then equilibrated to room temperature, and counted on a Packard Topcount. Linear regressions are performed and IC50's are calculated using computer software.
A modified version of the above HCMV polymerase assay is performed as described above, but with the following changes: Compounds are diluted in 100% DMSO until final dilution into assay buffer. In the previous assay, compounds are diluted in 50% DMSO. 4.5 mM dithiotherotol (DTT) is added to the polymerase buffer.

HSV polymerase = HSV polymerase (Human herpesvirus 1, UniProt P04293); assay: Polymerase scintillation proximity assay (SPA), HSV; type: biochemical
Sequence of HSV polymerase (P04293 whole entry): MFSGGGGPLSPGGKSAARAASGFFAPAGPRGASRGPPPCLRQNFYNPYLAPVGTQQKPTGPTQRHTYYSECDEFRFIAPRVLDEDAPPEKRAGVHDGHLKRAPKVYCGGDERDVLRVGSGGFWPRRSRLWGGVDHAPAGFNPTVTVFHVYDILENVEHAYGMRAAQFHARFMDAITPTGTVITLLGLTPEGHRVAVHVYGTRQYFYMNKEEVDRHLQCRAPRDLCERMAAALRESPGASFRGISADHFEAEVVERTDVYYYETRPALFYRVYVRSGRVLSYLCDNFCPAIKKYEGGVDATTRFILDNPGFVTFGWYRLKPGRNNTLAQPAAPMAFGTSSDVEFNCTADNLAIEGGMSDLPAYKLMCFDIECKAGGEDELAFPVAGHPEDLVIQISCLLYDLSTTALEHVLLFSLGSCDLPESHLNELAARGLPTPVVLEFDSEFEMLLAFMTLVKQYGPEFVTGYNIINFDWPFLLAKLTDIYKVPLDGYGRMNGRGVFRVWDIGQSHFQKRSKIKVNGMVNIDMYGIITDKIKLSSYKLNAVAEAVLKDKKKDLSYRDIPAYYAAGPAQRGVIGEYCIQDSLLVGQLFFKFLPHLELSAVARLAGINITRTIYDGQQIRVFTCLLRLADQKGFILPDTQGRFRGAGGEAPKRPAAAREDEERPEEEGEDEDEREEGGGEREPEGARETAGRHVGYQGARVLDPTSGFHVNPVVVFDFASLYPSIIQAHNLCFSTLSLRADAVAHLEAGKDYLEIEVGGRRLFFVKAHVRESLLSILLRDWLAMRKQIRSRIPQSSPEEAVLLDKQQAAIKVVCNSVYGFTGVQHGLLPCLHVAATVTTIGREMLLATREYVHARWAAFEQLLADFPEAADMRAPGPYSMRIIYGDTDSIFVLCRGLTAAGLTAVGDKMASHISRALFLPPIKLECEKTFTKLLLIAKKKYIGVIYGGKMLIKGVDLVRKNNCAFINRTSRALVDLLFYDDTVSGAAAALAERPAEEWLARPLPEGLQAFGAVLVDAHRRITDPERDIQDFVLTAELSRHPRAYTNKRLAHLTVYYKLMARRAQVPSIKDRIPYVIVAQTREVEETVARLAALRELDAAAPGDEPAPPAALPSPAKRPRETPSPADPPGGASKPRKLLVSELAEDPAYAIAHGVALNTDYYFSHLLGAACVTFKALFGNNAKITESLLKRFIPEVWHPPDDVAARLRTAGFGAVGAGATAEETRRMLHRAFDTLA

Sequence of VZV polymerase (P09252 whole entry): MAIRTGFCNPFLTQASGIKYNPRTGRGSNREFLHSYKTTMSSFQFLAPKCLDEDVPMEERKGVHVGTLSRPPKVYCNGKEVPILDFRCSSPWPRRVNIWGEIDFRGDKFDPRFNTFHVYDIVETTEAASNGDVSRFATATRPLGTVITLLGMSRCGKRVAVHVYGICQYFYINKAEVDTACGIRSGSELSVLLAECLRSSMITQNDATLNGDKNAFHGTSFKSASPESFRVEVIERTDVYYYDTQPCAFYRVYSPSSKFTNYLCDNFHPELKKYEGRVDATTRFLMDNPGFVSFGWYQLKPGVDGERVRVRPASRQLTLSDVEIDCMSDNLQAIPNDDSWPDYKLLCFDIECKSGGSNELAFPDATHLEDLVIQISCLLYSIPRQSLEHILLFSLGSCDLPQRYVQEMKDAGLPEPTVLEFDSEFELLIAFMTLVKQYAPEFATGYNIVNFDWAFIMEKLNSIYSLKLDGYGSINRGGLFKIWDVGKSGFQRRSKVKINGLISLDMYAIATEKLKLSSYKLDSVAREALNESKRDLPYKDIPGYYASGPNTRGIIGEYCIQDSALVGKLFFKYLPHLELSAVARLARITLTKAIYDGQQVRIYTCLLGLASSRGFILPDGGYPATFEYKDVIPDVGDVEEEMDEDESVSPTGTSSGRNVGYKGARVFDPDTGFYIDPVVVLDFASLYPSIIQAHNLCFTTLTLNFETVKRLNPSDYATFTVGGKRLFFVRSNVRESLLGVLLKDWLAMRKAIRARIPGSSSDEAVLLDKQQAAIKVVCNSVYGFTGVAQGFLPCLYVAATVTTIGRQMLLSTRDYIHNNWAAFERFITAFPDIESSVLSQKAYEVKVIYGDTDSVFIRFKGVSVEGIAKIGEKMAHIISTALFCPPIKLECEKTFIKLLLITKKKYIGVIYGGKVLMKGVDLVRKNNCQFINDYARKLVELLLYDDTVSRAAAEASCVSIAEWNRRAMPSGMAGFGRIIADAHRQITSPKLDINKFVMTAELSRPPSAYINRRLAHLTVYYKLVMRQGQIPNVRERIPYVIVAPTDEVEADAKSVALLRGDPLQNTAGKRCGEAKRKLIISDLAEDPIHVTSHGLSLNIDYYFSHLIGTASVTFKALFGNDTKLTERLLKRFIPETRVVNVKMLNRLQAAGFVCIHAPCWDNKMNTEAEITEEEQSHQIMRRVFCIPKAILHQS

SMILES: C[C@H](O)C#Cc1cc(CN2CCOCC2)cc2c(=O)c(C(=O)NCc3ccc(Cl)cc3)cn(C)c12 [Example 7, N-(4-chlorobenzyl)-8-[(3S)-3-hydroxy-1-butynyl]-1-methyl-6-(4-morpholinylmethyl)-4-oxo-1,4-dihydro-3-quinolinecarboxamide]
- melting point: 158 to 161 °C
- IC50 (VZV polymerase): 0.18 µM
- IC50 (HCMV polymerase): 0.76 µM
- IC50 (HSV polymerase): 0.45 µM

SMILES: C[C@@H](O)C#Cc1cc(CN2CCOCC2)cc2c(=O)c(C(=O)NCc3ccc(Cl)cc3)cn(C)c12 [Example 8, N-(4-chlorobenzyl)-8-[(3R)-3-hydroxy-1-butynyl]-1-methyl-6-(4-morpholinylmethyl)-4-oxo-1,4-dihydro-3-quinolinecarboxamide]
- melting point: 147 to 150 °C
- IC50 (VZV polymerase): 0.48 µM
- IC50 (HCMV polymerase): 0.87 µM
- IC50 (HSV polymerase): 1 µM

SMILES: Cn1cc(C(=O)NCc2ccc(Cl)cc2)c(=O)c2cc(CN3CCOCC3)cc(C#CCCCO)c21 [Example 10, N-(4-chlorobenzyl)-8-(5-hydroxy-1-pentynyl)-1-methyl-6-(4-morpholinylmethyl)-4-oxo-1,4-dihydro-3-quinolinecarboxamide]
- melting point: 179 to 182 °C
- IC50 (VZV polymerase): 0.16 µM
- IC50 (HCMV polymerase): 0.48 µM
- IC50 (HSV polymerase): 0.41 µM

SMILES: Cn1cc(C(=O)NCc2ccc(Cl)cc2)c(=O)c2cc(CN3CCOCC3)cc(C#CCN3CCS(=O)(=O)CC3)c21 [Example 11, N-(4-chlorobenzyl)-8-[3-(1,1-dioxido-4-thiomorpholinyl)-1-propynyl]-1-methyl-6-(4-morpholinylmethyl)-4-oxo-1,4-dihydro-3-quinolinecarboxamide]
- melting point: 220 to 222 °C
- IC50 (VZV polymerase): 0.18 µM
- IC50 (HCMV polymerase): 0.36 µM
- IC50 (HSV polymerase): 0.28 µM

SMILES: Cn1cc(C(=O)NCc2ccc(Cl)cc2)c(=O)c2cc(CN3CCOCC3)cc(C#CCn3cnc(Cl)c3Cl)c21 [Example 13, N-(4-chlorobenzyl)-8-[3-(4,5-dichloro-1H-imidazol-1-yl)prop-1-ynyl]-1-methyl-6-(morpholin-4-ylmethyl)-4-oxo-1,4-dihydroquinoline-3-carboxamide]
- melting point: 178 to 181 °C
- IC50 (VZV polymerase): 0.25 µM
- IC50 (HCMV polymerase): 0.5 µM
- IC50 (HSV polymerase): 0.49 µM

SMILES: Cn1cc(C(=O)NCc2ccc(Cl)cc2)c(=O)c2cc(CN3CCOCC3)cc(C#Cc3ccccn3)c21 [Example 15, N-(4-chlorobenzyl)-1-methyl-6-(morpholin-4-ylmethyl)-4-oxo-8-(pyridin-2-ylethynyl)-1,4-dihydroquinoline-3-carboxamide]
- melting point: 234 to 236 °C
- IC50 (VZV polymerase): 0.14 µM
- IC50 (HCMV polymerase): 0.32 µM
- IC50 (HSV polymerase): 0.26 µM

SMILES: Cn1cc(C(=O)NCc2ccc(Cl)cc2)c(=O)c2cc(CN3CCOCC3)cc(C#Cc3cccnc3)c21 [Example 16, N-(4-chlorobenzyl)-1-methyl-6-(morpholin-4-ylmethyl)-4-oxo-8-(pyridin-3-ylethynyl)-1,4-dihydroquinoline-3-carboxamide]
- melting point: 195 to 197 °C
- IC50 (VZV polymerase): 0.15 µM
- IC50 (HCMV polymerase): 0.47 µM
- IC50 (HSV polymerase): 0.28 µM

SMILES: Cn1cc(C(=O)NCc2ccc(Cl)cc2)c(=O)c2cc(CN3CCOCC3)cc(C#Cc3ccncc3)c21 [Example 17, N-(4-chlorobenzyl)-1-methyl-6-(morpholin-4-ylmethyl)-4-oxo-8-(pyridin-4-ylethynyl)-1,4-dihydroquinoline-3-carboxamide]
- melting point: 200 to 202 °C
- IC50 (VZV polymerase): 0.11 µM
- IC50 (HCMV polymerase): 0.42 µM
- IC50 (HSV polymerase): 0.21 µM

SMILES: Cn1cc(C(=O)NCc2ccc(Cl)cc2)c(=O)c2cc(CN3CCOCC3)cc(C#CCn3ccnc3)c21 [Example 23, N-(4-chlorobenzyl)-8-[3-(1 H-imidazol-1-yl)prop-1-ynyl]-1-methyl-6-(morpholin-4-ylmethyl)-4-oxo-1,4-dihydroquinoline-3-carboxamide]
- melting point: 178 to 180 °C
- IC50 (VZV polymerase): 0.1 µM
- IC50 (HCMV polymerase): 0.33 µM
- IC50 (HSV polymerase): 0.22 µM
